# Test results as given in article PMC3632557, “Histatin 5 Resistance of Candida glabrata Can Be Reversed by Insertion of Candida albicans Polyamine Transporter-Encoding Genes DUR3 and DUR31” (PLoS ONE, 2013).
# Experiments:
# C. albicans CAI4 [1] = assay: Spermidine uptake rate; format: cell-based, Candida albicans; conditions: method as in earlier work
# Text: (§1) Next, we investigated the role of altered Hst 5 uptake mechanisms between C. albicans and C. glabrata as a probable reason for their differential susceptibilities to Hst 5. C. albicans contains six DUR transporter family members that are responsible for polyamine (spermidine, spermine, and putrescine) uptake. […] C. glabrata CAGL0K03157g product has 54% identity and 71% similarity with C. albicans DUR3 (orf19.781); and C. glabrata CAGL0108613g product has 51% identity and 69% similarity with C. albicans DUR31 (orf19.6656). However, C. glabrata CAGL0K03157g (CaDUR3 homologue) gene product has even higher homology with S. cerevisiae DUR3, having 65% identity and 76% similarity. The in silico predicted function of these C. glabrata proteins is transmembrane transport; however their specific functions remain uncharacterized. […] There were no significant differences in rates of spermidine uptake among the three strains of C. glabrata (0.163±0.015 nanomoles/10^6 cells/min) compared to C. albicans (0.160±0.014 nanomoles/10^6 cells/min); thus showing polyamine transporter activity is equivalent between C. albicans and C. glabrata strains in respect to spermidine.
# [2] = test system: C. glabrata Cg10, Cg30, Cg32; assay: Spermidine uptake rate; format: cell-based, Candida glabrata; conditions: three strains of C. glabrata; method as in earlier work
# Text: as §1
# C. albicans CAI4 [3] = assay: Candidacidal assay (microdilution plate); format: cell-based, Candida albicans; conditions: 31 µM Hst 5; 1×10^6 cells, 10 mM NaPB pH 7.2, 30°C, 30 min, colony counts after 48 h; n = 4
# Experimental: (§2) Candidacidal assays were performed using microdilution plate assays. Briefly, single colonies of C. albicans CAI4, C. glabrata Cg10, Cg30, Cg32, and BG14 strains were inoculated in YPD media; Cg BG14-CaDUR3, Cg BG14-CaDUR31, and Cg BG14-Empty vector were inoculated in YNB media without uridine and grown overnight (A600 = 1.6–1.8). Cells were washed twice with 10 mM sodium phosphate buffer (NaPB) (pH 7.2) and cells (1×10^6) were incubated at 30°C for 30 min with different concentrations of Hst 5. Aliquots of 500 cells were spread onto YPD (WT strains) or YNB - uridine (C. glabrata expressing C. albicans DUR genes) agar plates and incubated for 48 h to visualize surviving colonies. Blocking experiments were performed using cells pre-incubated with β-1,3-glucan monoclonal antibody (Biosupplies) at room temperature for 30 min. All killing assays were performed in triplicate and repeated at least thrice. Percent cell killing was calculated as 1−(number of colonies from suspensions with Hst 5/numbers of colonies from control suspensions)×100.
# [4] = test system: C. glabrata BG14 cells not expressing C. albicans DUR genes; assay: Candidacidal assay (microdilution plate); format: cell-based, Candida glabrata; conditions: Hst 5 60 µM; 10 mM NaPB pH 7.2, 30°C, 30 min, colony counts; n = 3
# Experimental: as §2
# [5] = test system: C. glabrata Cg 90030 (Cg30); assay: Candidacidal assay (microdilution plate); format: cell-based, Candida glabrata; conditions: Hst 5 up to 31 µM; 10 mM NaPB pH 7.2, 30°C, 30 min, colony counts; n = 4
# Experimental: as §2
# [6] = test system: C. glabrata Cg 90032 (Cg32); assay: Candidacidal assay (microdilution plate); format: cell-based, Candida glabrata; conditions: Hst 5 up to 31 µM; 10 mM NaPB pH 7.2, 30°C, 30 min, colony counts; n = 4
# Experimental: as §2
# [7] = test system: C. glabrata Cg 931010 (Cg10); assay: Candidacidal assay (microdilution plate); format: cell-based, Candida glabrata; conditions: 31 µM Hst 5; 1×10^6 cells, 10 mM NaPB pH 7.2, 30°C, 30 min, colony counts; n = 4
# Experimental: as §2
# Cg BG14-CaDUR31 = assay: Candidacidal assay (microdilution plate); format: cell-based, Candida glabrata; conditions: Hst 5 60 µM; 10 mM NaPB pH 7.2, 30°C, 30 min, colony counts; n = 3
# Experimental: as §2
# Cg BG14-CaDUR3 = assay: Candidacidal assay (microdilution plate); format: cell-based, Candida glabrata; conditions: Hst 5 60 µM; 10 mM NaPB pH 7.2, 30°C, 30 min, colony counts; n = 3
# Experimental: as §2
# C. albicans CAI4 biofilm = assay: Confocal microscopy of F-Hst 5 in 24 h biofilms; format: cell-based, Candida albicans; conditions: FITC-labeled Hst 5 31.5 µM, 24 h biofilm
# Experimental: (§3) CAI4, Cg10, Cg30, Cg32, BG14, Cg BG14-CaDUR3, Cg BG14-CaDUR31, and Cg BG14-Empty vector were treated with fluorescein isothiocyanate FITC-labeled Hst 5 (F-Hst 5, synthesized by Genemed Synthesis, Inc.) to observe relative binding and uptake of salivary Hst 5 as described previously. […] Cells grown overnight (A600 = 0.8–1.0) were diluted to obtain 10^6 cells/ml in NaPB. Chambered cover glass slides (Lab-TekII) were coated with concanavalin A (100 µg/ml) for 30 min and washed twice with water. Cells (1×10^6) were fixed on concanavalin A-coated slides for 30 min at room temperature. The plates were then washed twice with 10 mM NaPB followed by addition of 31 µM FITC-Hst 5. Images were captured using a Zeiss LSM 510 Meta Confocal Microscope and Plan Apochromat 63/1.4 (oil) objective. The average fluorescence intensity was calculated using ImageJ software. Confocal images of cells were compared to determine the relative binding and uptake of Hst 5. Hst 5 binding to Candida biofilms was analyzed using confocal microscopy on biofilms of CAI4 and Cg30 strains. Biofilms were formed by addition of 500 µl cells (cultured overnight in YPD at 28°C, then washed and diluted to OD600 = 1.0 in PBS) to each well of culture dishes (MatTek, MA) and incubated at 37°C for 3 h. Non-adherent cells were removed by gentle washing and 500 µl media was added to each well. The dishes were then incubated at 37°C for 24 h to allow biofilm formation. F-Hst 5 (31.5 µM) was added to each well. Biofilms were measured using a series of horizontal (x–y) optical sections with a thickness of 0.38 µm taken throughout the full length of the biofilm. Z-stack images and thickness measurements of biofilms were obtained using AxioVision 4.4 software (Carl Zeiss LSM Micro Imaging). […] The total number of F-Hst 5 labeled cells was quantified in CAI4 and Cg30 biofilms manually from three independent stacks originating at the Bottom (2–3 µm), Middle (6–8 µm) or Top (12–16 µm) regions of the biofilm. Values were plotted using Graphpad Prism 5 software.
# C. glabrata Cg30 biofilm = assay: Confocal microscopy of F-Hst 5 in 24 h biofilms; format: cell-based, Candida glabrata; conditions: FITC-labeled Hst 5 31.5 µM, 24 h biofilm
# Experimental: as §3, with “Confocal images of cells were compared to determine the relative binding and uptake of Hst 5.” left out, “Biofilms were formed by addition of 500 µl cells (cultured overnight in YPD at 28°C, then washed and diluted to OD600 = 1.0 in PBS) to each well of culture dishes (MatTek, MA) and incubated at 37°C for 3 h. Non-adherent cells were removed by gentle washing and 500 µl media was added to each well. The dishes were then incubated at 37°C for 24 h to allow biofilm formation. F-Hst 5 (31.5 µM) was added to each well.” left out, “biofilm.” for “biofilm. Z-stack images and thickness measurements of biofilms were obtained using AxioVision 4.4 software (Carl Zeiss LSM Micro Imaging).”, “Values were plotted using Graphpad Prism 5 software.” left out
# [8] = test system: C. glabrata strains (ATCC 90030, 2001 and 64677); conditions: strains completely insensitive even at high concentrations; ref [10]; cited from earlier work
# Text: Histatins are basic histidine-rich proteins secreted in human parotid and submandibular-sublingual saliva in humans and higher primates. Histatin 5 (Hst 5) is a proteolytic cleavage product of the larger Histatin 3 family member, [6]. […] However, ma ...
Compound,rate of spermidine uptake (C. albicans CAI4 [1]) [nanomoles/10^6 cells/min],rate of spermidine uptake [2] [nanomoles/10^6 cells/min],cell death (killing) (C. albicans CAI4 [3]) [%],killing [4] [%],maximal killing [5] [%],maximal killing [6] [%],killing [7] [%],killing (Cg BG14-CaDUR31) [%],killing (Cg BG14-CaDUR3) [%],"Hst 5 containing cells, total biofilm (C. albicans CAI4 biofilm) [%]","percentage of Hst 5 containing cells, bottom regions (C. albicans CAI4 biofilm)","percentage of Hst 5 positive cells, middle regions (8 µm) (C. albicans CAI4 biofilm) [%]","Hst 5 containing cells, total biofilm (C. glabrata Cg30 biofilm) [%]","percentage of Hst 5-labeled cells, bottom regions (2.5 µm) (C. glabrata Cg30 biofilm) [%]",IC50 [8] [mg/L]
NCCCCNCCCN [spermidine],0.160±0.014,0.163±0.015,–,–,–,–,–,–,–,–,–,–,–,–,–
Histatin 5 [Hst 5],–,–,65,25,8,10,22,55,43,28,≈ 25%,33,17,20,> 225
